{"source": "patent US11806351B2", "about": "“Use of coenzyme factor for activation of ATP production in cell” (TERA STONE Co., Ltd, priority 2018, dated 2023)", "key": {"[1]": {"test_system": "human-derived neuroblast (Neuroblastoma) SH-SY5Y strain", "assay": "fluorescence measurement of intracellular/extracellular ATP concentration in SH-SY5Y cultured cells", "type": "cell-based", "conditions": "for intracellular ATP production (fluorescence intensity): in the cells", "description": "After the addition of Specimen 1 to cultured cells of a human-derived neuroblast (Neuroblastoma) SH-SY5Y strain, fluorescence measurement of an intracellular/extracellular ATP concentration was performed."}, "hippocampal neurons [2]": {"test_system": "hippocampal neurons", "assay": "mature cultured hippocampal neurons: dendrite branches", "type": "cell-based, ICR mouse", "description": "As in Example 4, hippocampal neurons were collected from a juvenile (0 day after birth) ICR mouse brain and the neurons were cultured on a culture dish.\nSpecimen 1 was administered once to the mature cultured hippocampal cells (on culture day 11) and three days later (on culture day 14), the neuron axons and dendrites of the hippocampal neurons (neurons) were observed.\nConcentric circles were drawn at an interval of 10 μm with a soma as a center and the number of dendrites crossing the circles was measured."}, "[3]": {"test_system": "cytoplasmic calcium concentration", "assay": "cytoplasmic calcium concentration in brain slice preparations exposed to 80K ACSF, 24 h after subcutaneous administration", "type": "in vivo, mouse (C57B/6NL)", "description": "(§1) Formation of brain slice preparation and measurement of calcium concentration: Used was a whole brain half-cut preparation obtained by cutting a whole brain slice (300 μm) of a mouse (C57B/6NL), pretreated with Specimen 1 for 24 hours by subcutaneous administration, at a median line. […] The resulting preparation was placed in a chamber provided on a stage of an inverted fluorescence microscope (Olympus IX71), covered with a piece of black cotton, fixed with a platinum ring, and refluxed (70 ml/hr) in ACSF aerated with 95% O2 and 5% CO2. A fluorescent image of the preparation was acquired using a 4× objective lens and respective images of the hippocampal ventral part and cerebral cortex temporal region were obtained in one screen. For the measurement of a mitochondrial calcium concentration, a change in intensity of red fluorescence (>600 nm) caused by excitation light at 580 nm was determined and for the measurement of a cytoplasmic calcium concentration, a ratio of fluorescence (>500 nm) between excitation at 360 nm and that at 380 nm was determined. A hippocampal CA1 site and a cerebral cortex were used as two regions of interest (ROI).\n(§2) In water was dissolved β-NMN to give a 10 mg/kg, 30 mg/kg, or 100 mg/kg solution; Specimen 1 was dissolved in an alcohol to give a solution of 1 mg/ml and then the resulting solution was diluted with water to give a 0.01 mg/kg, 0.1 mg/kg or 1.0 mg/kg solution; and they were subcutaneously administered to mice 24 hours before the formation of the preparation (0.1 ml/10 g).\n(§3) In the present test, an operation of exposing the brain preparations formed from mice administered with two drugs having respective concentrations to isotonic 80 mM KCl-ACSF (artificial cerebrospinal fluid) for 5 minutes and then returning them in normal ACSF for 5 minutes was performed three successive times to give a severe calcium load to the preparations. Variations in cytoplasmic and mitochondrial calcium concentrations at that time were measured."}, "[4]": {"test_system": "human glioma U251 cells (Sig1-R transfected cells)", "assay": "intracellular ATP concentration in human glioma U251 cells", "type": "cell-based", "conditions": "fluorescence measurement 6 hours after administration", "description": "To cultured human glioma US251 cells (Sig1-R transfected cells) were added Specimens 1 and 2, respectively and intercomparison was performed between intracellular ATP concentration after addition and that without addition (Cont.). […] It is to be noted that fluorescence measurement was performed 6 hours after the administration of the specimens."}, "[5]": {"test_system": "mitochondrial calcium concentration", "assay": "mitochondrial calcium concentration in brain slice preparations exposed to 80K ACSF, 24 h after subcutaneous administration", "type": "in vivo, mouse (C57B/6NL)", "description": "as §1, §2, §3\nFIG. 31A to FIG. 32C show the quantification results of the effects of β-NMN and Specimen 1 (TND1128) at each concentration. In FIG. 31A to FIG. 32C, FIG. 31A and FIG. 32A show the results of calculating a mitochondrial calcium concentration, as AUC (Area under the curve), for 35 minutes from 5 minutes after starting of the experiment by administration to three times exposure to 80K-ACSF and 5-minute washing (refer to FIG. 37). FIG. 31B. FIG. 31C, FIG. 32B and FIG. 32C show the drug effects on 5-minute 80K administration and 5-minute subsequent washing (1st: from 5 minutes to 15 minutes, 2nd: from 15 minutes to 25 minutes, and 3rd: from 25 minutes to 35 minutes) in the cerebral cortex (CTX) and the hippocampus (CA1), respectively (refer to FIG. 37). A significant difference test was performed using Tukey's method."}, "SIRT1": {"test_system": "SIRT1", "assay": "SIRT1 in treated nematode (preliminary experiment)", "type": "in vivo", "conditions": "nematode treated for 24 hours"}, "hippocampal neurons [6]": {"test_system": "hippocampal neurons", "assay": "cultured hippocampal neurons, initial stage of growth: axons, dendrites, excitatory synapses", "type": "cell-based, ICR mouse", "description": "Hippocampal neurons were collected from a juvenile (0 day after birth) ICR mouse brain and neurons were cultured on a culture dish.\nSpecimen 1 was added once to the cells in the initial stage of growth (on culture day 1) and after three days (on culture day 4), the number of neuron axons, dendrites, and growing synapses of the hippocampal neurons (neurons) was quantified. Specimen 1 (0.1 μM, 0.3 μM, 1.0 μM) was added once on culture day 1. Axon and Dendrite were immunostained with a tau antibody and a MAP2 antibody, respectively, three days after the addition (on culture day 4) and morphology thereof was observed.\nAn experiment was performed by drawing concentric circles (not shown) at an interval of 10 μm with a soma as a center and the number of axons crossing the circles was measured.\nThe dendrite was immunostained with a MAP2 antibody on culture day 4 and the number of branches of the dendrite was quantified. An experiment was performed by drawing concentric circles (not shown) at an interval of 10 μm with a soma as a center and the number of dendrites crossing the circles was counted.\nThen, excitatory synapses on culture 14 day were immunostained with a VGLUT1 antibody and the number of synapses was quantified."}, "[7]": {"test_system": "astrocytes, one of glial cells of the central nerve system", "assay": "fluorescence measurement of ATP amount in cultured astrocytes", "type": "cell-based", "conditions": "1 μM", "description": "Specimen 1 was added to astrocytes, one of glial cells of the central nerve system, after culturing and the fluorescence measurement results are shown in FIG. 2A and FIG. 2B."}, "[8]": {"assay": "lipophilicity, hydrophobicity and stability", "type": "physicochemical"}, "[9]": {"conditions": "0.3 μM and 1.0 μM, culture day 4"}}, "data": [{"smiles": "CCn1c2nc(=O)n(C)c(=O)c-2cc2ccccc21", "note": "[Specimen 1]", "values": [{"measurement": "intracellular ATP production (fluorescence intensity)", "setting": "[1]; 1 μM, after 12 hours", "value": "the effect disappears after 12 hours"}, {"measurement": "intracellular ATP production (fluorescence intensity)", "setting": "[1]; 1 μM, immediately after addition", "value": "an increase in ATP production (increase in fluorescence intensity) is observed for 5 hours"}, {"measurement": "extracellular ATP production / ATP concentration", "setting": "[1]; 1 μM, outside the cells", "value": "an increase in ATP production is observed for 5 hours"}, {"measurement": "morphological change of the cultured cells", "setting": "[1]; treatment with the specimen", "value": "no morphological change of the cultured cells"}, {"measurement": "number of dendrites in mature cultured cell", "setting": "hippocampal neurons [2]; 0.3 μM and 1 μM, administered culture day 11, MAP2 antibody culture day 14", "value": "the number of dendrites tends to increase"}, {"measurement": "increase in the number of dendrite branches, mature cells compared with culture day 4", "setting": "hippocampal neurons [2]; administered culture day 11, observed culture day 14", "value": "an increase in the number of branches was not so more marked than that caused by the drug efficacy observed in the cells on culture day 4"}, {"measurement": "effect on drastic increase in cytoplasmic Ca2+ concentration caused by 80K-ACSF", "setting": "[3]; s.c. 24 h pretreatment", "value": "no significant effect"}, {"measurement": "quantified cytoplasmic Ca2+ (AUC), significant difference", "setting": "[3]; s.c. 24 h pretreatment, all doses", "value": "a significant difference was not observed"}, {"measurement": "recovery of cytoplasmic calcium concentration variations at each 80K-ACSF administration", "setting": "[3]; β-NMN 30 or 100 mg/kg, Specimen 1 0.01 to 1.0 mg/kg, s.c. 24 h", "value": "show similar recovery"}, {"measurement": "ATP production amount (intracellular ATP concentration vs without addition)", "setting": "[4]", "value": "significantly increased the ATP production amount"}, {"measurement": "physiological response of the preparations under 80K-ACSF stimulation (mitochondrial and cytoplasmic Ca2+ variations)", "setting": "[5]; 100 mg/kg β-NMN, 1 mg/kg Specimen 1", "value": "the preparations can maintain a markedly stable physiological response"}, {"measurement": "mitochondrial protective function / function stabilizing effect", "setting": "[5]; 24 hours after administration", "value": "significant mitochondrial function stabilizing effect"}, {"measurement": "effective amount", "setting": "[5]; s.c. 24 h pretreatment", "value": "≤ 1.0", "unit": "mg/kg"}, {"measurement": "strength of mitochondrial Ca2+ concentration suppressing effect relative to β-NMN, judged from the effective concentration", "setting": "[5]; s.c. 24 h pretreatment", "value": 100, "unit": "times"}, {"measurement": "mitochondrial calcium concentration as AUC, cerebral cortex (CTX) and hippocampus (CA1)", "setting": "[5]; s.c. 24 h pretreatment, within the dose range studied, Tukey's method", "value": "a dose response relationship"}, {"measurement": "mitochondrial Ca2+ increase on three times 80K ACSF exposure (time course)", "setting": "[5]; s.c. 24 h pretreatment, β-NMN 10, 30, 100 mg/kg, Specimen 1 0.01, 0.1, 1.0 mg/kg", "value": "dose-dependently suppress a mitochondrial Ca^2+ increase"}, {"measurement": "SIRT1", "setting": "SIRT1", "value": "significant increase"}, {"measurement": "drug efficacy on axons at 0.3 μM and 1.0 μM", "setting": "hippocampal neurons [6]; [9]", "value": "almost similar maximum drug efficacy"}, {"measurement": "drug efficacy on dendrites at 0.3 μM and 1.0 μM", "setting": "hippocampal neurons [6]; [9]", "value": "almost similar maximum drug efficacy"}, {"measurement": "number of excitatory synapses", "setting": "hippocampal neurons [6]; 0.3 μM, VGLUT1 antibody, culture day 14", "value": "significantly increased the number of excitatory synapses to the maximum"}, {"measurement": "dendrite extension and number of branches", "setting": "hippocampal neurons [6]; 0.1, 0.3, 1.0 μM added once on culture day 1, MAP2 antibody, culture day 4", "value": "concentration-dependently extended the dendrite and increased the number of branches thereof"}, {"measurement": "elongation/growth of neuron axons and number of branches", "setting": "hippocampal neurons [6]; 0.1, 0.3, 1.0 μM added once on culture day 1, tau antibody, culture day 4", "value": "concentration-dependently increases the elongation/growth of neuron axons and the number of branches"}, {"measurement": "ATP amount in the glial cells", "setting": "[7]; 12 hours and 24 hours after administration", "value": "significantly increased"}, {"measurement": "extracellular ATP amount", "setting": "[7]; astrocytes", "value": "shows a similar tendency"}, {"measurement": "hydrophobicity", "setting": "[8]", "value": "highly hydrophobic"}, {"measurement": "stability", "setting": "[8]; chemical stability", "value": "stable"}]}]}
